The values below are quoted from earlier work in patent publication US6641838B2, “Effervescent drug delivery system for oral administration” (Cima Labs Inc., priority 1998, dated 2003).

The conditions of one data set: in vivo, po.
For the compound `CNC1(c2ccccc2Cl)CCCCC1=O` (stereo not shown) [Ketamine], the “Bioavailability (%)” value was 20 ± 7%. With `Oc1ccc2c3c1O[C@H]1[C@@H](O)CC[C@@]4(O)[C@@H](C2)N(CC2CCC2)CC[C@]314` [Nalbuphine], the “Bioavailability (%)” value is 25 ± 16%; the average bioavailability entry is given as “approximately 17%”; the “range of bioavailability (inter- and intrasubject variability)” value is listed as 6-40%. Turning to `CN(C)C(=O)Oc1ccc[n+](C)c1` [Pyridostigmine], the “Bioavailability (%)” value is 14 ± 3%. In the case of Methyldopa, the “Bioavailability (%)” value is on record as 25 ± 16% and the average bioavailability was 25%.

The same data set, now with this note: orally administered drug, conventional dosage forms; examples of drugs with poor bioavailability.
Consider `Nc1nc2c(ncn2COCCO)c(=O)[nH]1` [Acyclovir], for which the “Bioavailability (%)” value is listed as 15 − 30%. Take `CC(=O)OC[C@H]1O[C@@H]([S-])[C@H](OC(C)=O)[C@@H](OC(C)=O)[C@@H]1OC(C)=O.CCP(CC)CC.[Au+]` [Auranofin]: the “Bioavailability (%)” value is recorded as 15 − 25%. For `CC[N+](C)(C)Cc1ccccc1Br` [Bretylium], the “Bioavailability (%)” value is on record as 23 ± 9%. Turning to `Nc1ccn([C@@H]2O[C@H](CO)[C@@H](O)[C@@H]2O)c(=O)n1` [Cytarabine], the “Bioavailability (%)” value is 20%.

Turning to `CN(C)CCC=C1c2ccccc2COc2ccccc21` [Doxepin], the “Bioavailability (%)” value is listed as 27 ± 10%. On to `NNc1nncc2ccccc12` [Hydralazine], for which the “Bioavailability (%)” value is 16 − 35%. Take `CC(CCc1ccccc1)NCC(O)c1ccc(O)c(C(N)=O)c1` (stereo not shown) [Labetalol]: the “Bioavailability (%)” value was 18 ± 5%. For the compound `Sc1ncnc2nc[nH]c12` [Mercaptopurine], the “Bioavailability (%)” value was 12 ± 7%. Take `C=CCN1CC[C@]23c4c5ccc(O)c4O[C@H]2C(=O)CC[C@@]3(O)[C@H]1C5` [Naloxone]: the “Bioavailability (%)” value is 2%. As to `CC(=O)CCCCn1c(=O)c2c(ncn2C)n(C)c1=O` [Pentoxifylline], the “Bioavailability (%)” value is reported as 19 ± 13%. In the case of `Cc1cc2nc3c(=O)[nH]c(=O)nc-3n(C[C@H](O)[C@H](O)[C@H](O)CO)c2cc1C` [Riboflavin], the “Bioavailability (%)” value is 11%. For the compound `CC(C)(C)NCC(O)c1cc(O)cc(O)c1` (stereo not shown) [Terbutaline], the “Bioavailability (%)” value was 14 ± 2%.
